Several values for one entry are separate records, joined by “and”; a condition that tells them apart may be missing. Identical values can stand only once. Positions of bridges follow the written chain, without caps; N, C: chain ends. Residues, ends and D or L forms follow the SMILES beside them.
Key:
cJun [1] = molecular target: T1, cJun (Homo sapiens, UniProt P05412); assay: Isothermal titration calorimetry (ITC) with cJun; format: binding; conditions: 25 °C, average of two experiments ± one SD
T1 construct: The same 60 amino acid cJun construct, encompassing the entire bZIP domain, was used for all experiments
T1 sequence (P05412 252-315 limits assumed): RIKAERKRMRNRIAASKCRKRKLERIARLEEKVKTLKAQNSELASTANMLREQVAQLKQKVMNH
Source text: A selection of peptides from this work were investigated by isothermal titration calorimetry (ITC) to quantify the thermodynamic parameters of their interaction with target cJun (Figure 4 and S6; Table 2). The determined equilibrium binding constant (KD) values follow from the CD data above and can be rationalized in terms of the truncation or lactamization they represent. […] All interactions investigated were dominated by the enthalpic component, with a smaller unfavorable entropic contribution, other than for HW8/cJun, which is the weakest interaction. The unfavorable entropic component was largest for the HW30/cJun interaction and smallest for HW23/cJun. This indicates the introduction of lactams produces a more unfavorable entropic component, perhaps a surprising result as helix-inducing lactamization is typically considered to increase affinity through entropic pre-organization. However, the larger increase in the favorable enthalpic component produces an increase in binding affinity due to lactamization. This is likely to be caused by a combination of enhanced intermolecular contacts and ordering that are opposed by unfavorable desolvation effects.
Two-μL injections of antagonist peptide at 25–200 μM were injected into the cell containing cJun at 2.5–20 μM at 25°C. Microcal Control and Analysis software were used to record and analyze the heat change upon addition and fit the data to a one-site binding model to extract the enthalpy change of binding (ΔH) and the KD, from which the free energy change of binding (ΔG) and the entropy change of binding (ΔS) were calculated.[40] Control experiments involved the injection of the antagonist peptide sample into the cell containing ITC buffer alone to determine the heat of dilution, which was subtracted. Thermodynamic parameters are presented as an average of two independent experiments with errors given as one SD.

cJun [2] = molecular target: T1, cJun; assay: CD thermal denaturation of peptide-cJun heterodimers (Tm); format: binding
Experimental: (§1) The precise nature of the interaction between the cJun DBD and the rationally designed acidic domain of HW1 is unknown. HW1 was, therefore, iteratively truncated from the N terminus (HW2–6) to investigate the effect on cJun binding and cJun/TRE DNA antagonism (Table 1). Peptide fraction helicity (fH) was determined by quantifying the circular dichroism (CD) signal at 222 nm of peptide-only samples (Figure S1). Thermal denaturation experiments were then used to determine the melting temperature (Tm) of peptide-cJun heterodimers, which serves as an approximate measure of target engagement. CD was also used to investigate the functional activity of peptides in antagonizing the cJun/TRE DNA interaction. […] This provides a clear and direct measurement of the proportion of DNA bound to cJun. As antagonist peptide concentration was increased, the peak shifted to overlay with that of free TRE-DNA (Figure S4). For each peptide, the data were fit to a Hill equation to determine half-maximal inhibitory concentration (IC50) values, specific to these assay conditions, providing a clear comparative measure of antagonism. The same 60 amino acid cJun construct, encompassing the entire bZIP domain, was used for all experiments regardless of antagonist peptide length.
Figure 2 Iterative N-terminal truncation of HingeW reduces cJun binding and antagonism (A) Thermal denaturation profiles for iteratively truncated peptide (5 μM)/cJun (5 μM) heterodimer samples. (B) CD antagonism data produced by monitoring the shift in a DNA specific peak to provide a direct readout of cJun-DNA binding. Peptides are added at the indicated concentrations to a pre-incubated mixture of cJun (20 μM) and TRE DNA (5 μM). Data points were averaged from triplicate experiments, and error bars indicate one SD. The data were fitted to a Hill equation to determine IC50 values. Some higher peptide concentration data points for HW6 and HW9 are not shown in this plot for clarity.

Stability in human serum = conditions: human serum (Merck), 75 μL of 600 μM peptide stock added to 1425 μL serum, 37 °C, 3-day endpoint; acetonitrile:water precipitation; LC-MS, sum of two largest charge-state peaks; average of three repeats
[3] = Peptide fraction helicity by CD at 222 nm, peptide-only samples; format: physicochemical; conditions: CD signal at 222 nm of peptide-only samples; pH 7.4 phosphate/KF/TCEP buffer; duplicate experiments
Experimental: as §1

cJun/TRE DNA interaction = molecular target: T2, cJun/TRE DNA interaction (Homo sapiens, UniProt P05412); assay: CD antagonism of the cJun/TRE DNA interaction; format: biochemical
T2 construct: The same 60 amino acid cJun construct, encompassing the entire bZIP domain, was used for all experiments
T2 sequence (P05412 252-315 limits assumed): as above
Experimental: as §1, with “For each peptide, the data were fit to a Hill equation to determine half-maximal inhibitory concentration (IC50) values, specific to these assay conditions, providing a clear comparative measure of antagonism. The same 60 amino acid cJun construct, encompassing the entire bZIP domain, was used for all experiments regardless of antagonist peptide length.” left out
Figure 2 Iterative N-terminal truncation of HingeW reduces cJun binding and antagonism (A) Thermal denaturation profiles for iteratively truncated peptide (5 μM)/cJun (5 μM) heterodimer samples. (B) CD antagonism data produced by monitoring the shift in a DNA specific peak to provide a direct readout of cJun-DNA binding. […]

TRE DNA = assay: CD of TRE DNA with antagonist peptide alone (Figure S3); format: binding; conditions: TRE DNA (5 μM) + HingeW (50 μM), CD 260-320 nm
Experimental: as §1, with “length. […]” for “length.”
wavelength range, so the CD signal observed occurs due to the DNA structure, which is not perturbed upon addition of HingeW. […]

[4] = molecular target: T3, cJun (60 amino acid construct encompassing the entire bZIP domain) (UniProt P05412 252-315); assay: cell-based or functional assay
T3 sequence (P05412 252-315): as the sequence (P05412 252-315 limits assumed) above

[5] = molecular target: T3, cJun (60 amino acid construct …); assay: CD thermal denaturation; peptide (5 μM) with cJun (5 μM); ellipticity at 222 nm, 1°C to 90°C; 20 mM potassium phosphate, 150 mM potassium fluoride, 2 mM TCEP, pH 7.4; two-state fit gives the Tm of the peptide-cJun heterodimer; duplicate experiments; conditions: both partners purified
[6] = CD thermal denaturation; peptide alone (no cJun); thermal denaturation curves compared as a sign of homodimerization; conditions: other: CD thermal denaturation
[7] = molecular target: cJun (60 amino acid construct encompassing the entire bZIP domain) (UniProt P05412)
cJun (60 amino acid construct encompassing the entire bZIP domain) (UniProt P05412), sequence (P05412 252-315): as the sequence (P05412 252-315 limits assumed) above

[8] = peptide 25-200 μM injected into cJun 2.5-20 μM, pH 7.4, one-site model

Ac-EAEELVVEEDVLEEEIEQLEERNYALRKEIEDLQKQ-NH2 [HW8]
ΔH (cJun [1]; pH 7.4, one-site model): -5.989 ± 0.813 kcal/mol | Stoichiometry, n (cJun [1]; [8]): 0.95 ± 0.09 | Tm of peptide-cJun heterodimer (cJun [2]; CD ellipticity at 222 nm, 1-90 °C, peptide (5 μM)/cJun (5 μM), 20 mM potassium phosphate, 150 mM potassium fluoride, 2 mM TCEP pH 7.4, two-state fit, duplicate experiments, ± one SD): 57.1 ± 0.9 °C | peptide remaining in human serum, peak intensity relative to starting value (Stability in human serum): fully degraded | fH, peptide fraction helicity [3]: 37.3%

Ac-EAEELVVEEDVLEEEIEQLEEKNKALKDEIEDLY-NH2 [HW14]
IC50 (cJun/TRE DNA interaction; peptide added to pre-incubated cJun (20 μM) and TRE DNA (5 μM), shift of DNA CD peak at ~281 nm, 30 min equilibration, pH 7.4, Hill fit, triplicate experiments, ± one SD, read-out: IC50 CD (antagonism of cJun/TRE DNA binding)): 1560 µM | fH, peptide fraction helicity [3]: 30.1%

CC[C@H](C)[C@H](NC(=O)[C@H](CCC(=O)O)NC(=O)[C@H](CCCCN)NC(=O)[C@H](CCCNC(=N)N)NC(=O)[C@H](CC(C)C)NC(=O)[C@H](C)NC(=O)[C@H](Cc1ccc(O)cc1)NC(=O)[C@H](CC(N)=O)NC(=O)[C@H](CCCNC(=N)N)NC(=O)[C@H](CCC(=O)O)NC(=O)[C@H](CCC(=O)O)NC(=O)[C@H](CC(C)C)NC(=O)[C@H](CCC(N)=O)NC(=O)[C@H](CCC(=O)O)NC(=O)[C@@H](NC(=O)[C@H](CCC(=O)O)NC(=O)[C@@H]1CC(=O)NCCCC[C@H](NC(=O)[C@H](CCC(=O)O)NC(=O)[C@H](CCC(=O)O)NC(=O)[C@@H](NC(=O)[C@@H](NC(=O)[C@H](CC(C)C)NC(=O)[C@H](CCC(=O)O)NC(=O)[C@H](CCC(=O)O)NC(=O)[C@H](C)NC(=O)[C@H](CCC(=O)O)NC(C)=O)C(C)C)C(C)C)C(=O)N[C@@H](C(C)C)C(=O)N[C@@H](CC(C)C)C(=O)N[C@@H](CCC(=O)O)C(=O)N1)[C@@H](C)CC)C(=O)N[C@H]1CCCCNC(=O)C[C@@H](C(=O)N[C@@H](CCC(N)=O)C(N)=O)NC(=O)[C@H](CCC(N)=O)NC(=O)[C@H](CC(C)C)NC(=O)[C@H](CC(=O)O)NC1=O [HW30] (Ac-EAEELVVEEKVLEDEIEQLEERNYALRKEIKDLQDQ-NH2; lactam 10-14, 31-35)
peptide remaining in human serum, peak intensity relative to starting value (Stability in human serum): 56%

MASLEQRAEELARENEELEKEAEELVVE-NH2 [HW7, acidic domain of HW1 alone (CΔ35)]
antagonism of the ability of cJun to bind TRE DNA (in words) (cJun/TRE DNA interaction; CD antagonism assay): did not | binding to cJun (in words) (cJun [2]; acidic domain alone): not to bind

MASLEQRAEELARENEELEKEAEELVVEEDVLEEEIEQLEERNYALRKEIEDLQKQLEKLGAPHHHHHH [HW1, TBS-derived cJun antagonist; recombinantly produced N/C-capped, C-terminally 6xHis-tagged construct of 69 amino acids]
ΔG (cJun [1]; pH 7.4, calculated from KD): -13.45 ± 0.179 kcal/mol | -TΔS (cJun [1]; pH 7.4, calculated from ΔH and KD): 17.55 ± 0.884 kcal/mol | interaction with TRE DNA (in words) (TRE DNA): does not interact | peptide remaining in human serum, peak intensity relative to starting value (Stability in human serum): fully degraded | fH, peptide fraction helicity [3]: ~27% and 27.2%

CC[C@H](C)[C@H](NC(=O)[C@H](CCC(=O)O)NC(=O)[C@H](CCCCN)NC(=O)[C@H](CCCNC(=N)N)NC(=O)[C@H](CC(C)C)NC(=O)[C@H](C)NC(=O)[C@H](Cc1ccc(O)cc1)NC(=O)[C@H](CC(N)=O)NC(=O)[C@H](CCCNC(=N)N)NC(=O)[C@H](CCC(=O)O)NC(=O)[C@H](CCC(=O)O)NC(=O)[C@H](CC(C)C)NC(=O)[C@H](CCC(N)=O)NC(=O)[C@H](CCC(=O)O)NC(=O)[C@@H](NC(=O)[C@H](CCC(=O)O)NC(=O)[C@H](CCC(=O)O)NC(=O)[C@H](CCC(=O)O)NC(=O)[C@H](CC(C)C)NC(=O)[C@@H](NC(=O)[C@H](CC(=O)O)NC(=O)[C@H](CCC(=O)O)NC(=O)[C@H](CCC(=O)O)NC(=O)[C@@H](NC(=O)[C@@H](NC(=O)[C@H](CC(C)C)NC(=O)[C@H](CCC(=O)O)NC(=O)[C@H](CCC(=O)O)NC(=O)[C@H](C)NC(=O)[C@H](CCC(=O)O)NC(C)=O)C(C)C)C(C)C)C(C)C)[C@@H](C)CC)C(=O)N[C@H]1CCCCNC(=O)C[C@@H](C(=O)N[C@@H](CCC(N)=O)C(N)=O)NC(=O)[C@H](CCC(N)=O)NC(=O)[C@H](CC(C)C)NC(=O)[C@H](CC(=O)O)NC1=O [HW29] (Ac-EAEELVVEEDVLEEEIEQLEERNYALRKEIKDLQDQ-NH2; lactam 31-35)
Kd (cJun [1]; [8]): 0.0866 ± 0.017 µM | ΔTm of cJun heterodimer due to lactamization (cJun [2]; cyclized versus its linear (non-lactamized) counterpart): ~9 °C | ΔTm of cJun heterodimer relative to parent sequence HW8 (cJun [2]; versus HW8, before the substitutions for K and D residues): ~8 °C | peptide remaining in human serum, peak intensity relative to starting value (Stability in human serum): 31%

B1: HW5 (peptide)
peptide: Ac-LVVEEDVLEEEIEQLEERNYALRKEIEDLQKQLEKL-NH2
notes: truncation NΔ24 CΔ3 of HW1; source: synthetic peptide (Fmoc SPPS, RP-HPLC purified)
IC50 CD: peptide added to pre-incubated cJun (20 μM) and TRE DNA (5 μM); blocks cJun/TRE DNA binding [4]: 78.2 µM | Tm of the peptide-cJun heterodimer [5]: 62.8 °C | Tm of the peptide alone [6]: HW5 displayed a Tm of 41 °C

B2: HW14 (peptide)
peptide: Ac-EAEELVVEEDVLEEEIEQLEEKNKALKDEIEDLY-NH2
IC50 CD: peptide added to pre-incubated cJun (20 μM) and TRE DNA (5 μM); blocks cJun/TRE DNA binding [7]: 1560 µM
